The source of these data is patent US7745570B2, “PH dependent adhesive peptides” (Kansas State University Research Foundation, priority 2005, dated 2010).

“Also recorded” adds a separate entry of the source. Where no end group is shown, it is not given here.

The conditions of series [1]: modified Wimley-White scale, side chain values; cited from earlier work.
The conditions of series [2]: Wimley and White Hydrophobicity Scale; cited from earlier work.
Series [3] is described as follows: Viscosity of peptide solutions, Brookfield viscometer. It is filed as physicochemical. Particulars: peptide 4%, 20 rpm, RT. On the procedure:
Viscosity: Viscosity of peptides at different pH was measured in a Brookfield RVDV-III 5^+ viscometer (Middleboro, Mass.). All the measurements were taken at 2.5 minute intervals using 8 mL samples at ambient temperature with a spindle SC4-21 operating at 20 rpm. Five data points were averaged for each reported value.

Series [4] in a line: Solubility and ionisation of peptides at the test pH values. It is filed as physicochemical. Particulars: for Solubility: aqueous peptide solutions at pH 2.2, 6.8, 12.0.
A short description of series [5]: MALDI mass spectrometry of dried/hot-pressed peptide for hydrolysis of peptide bonds. The class given is physicochemical. Conditions: 4% peptide pH 12, dried at RT or 130° C. without pressure or 130° C. with pressure. The procedure: The same K3h9K3 samples used in the FTIR studies were analyzed by matrix assisted, laser desorption mass spectrometry. At elevated pH and temperature, the spontaneous hydrolysis of peptide bonds could occur. Dried samples taken from glass slides treated with 4% peptide solutions at pH 12 and dried at either room temperature or 130° C. without pressure as well as dried at 130° C. with pressure were dissolved in acetonitrile containing matrix and transferred to mass spectral target slides.

Series [6] in a line: Circular dichroism at 25° C. to 75° C. (conformational stability). It is filed as physicochemical. Conditions: 250 μM, pH 12, 25° C. to 75° C. The procedure:
Circular Dichroism Spectra: The data set out in FIG. 4 were collected according to the following protocol. The circular dichroic spectra were recorded on a J-720 (Jasco, Japan) spectropolarimeter with a Neslab RTE-111M circulator using a 1.0 mm quartz cuvette from 260 to 180 nm. The spectra are an average of five scans recorded at a rate of 20 nm/min with a 0.2 nm step interval. For circular dichroism measurements, 1 mL samples of synthetic peptide were prepared with a different pH buffer solution. The following buffers were used: 60 mM glycine, 60 mM NaCl, 40 mM HCl, pH 2.2; 50 mM glycine, 50 mM NaCl, 0.2 mM NaOH, pH 6.8; and 45 mM glycine, 45 mM NaCl, 55 mM NaOH, pH 12. The final peptide concentration was 250 μM. All spectra were corrected by subtracting the baseline of the buffer solution recorded under the same condition. Unless otherwise noted, spectra were recorded at room temperature. The CD absorbances were expressed as the mean residue ellipticity in units of degrees cm^2 dmol^−1. Temperatures were controlled with a refrigerated circulator bath (Neslab RTE-111M). Temperatures were controlled between 25° C. to 75° C.
(In general: Circular dichroism is widely used to follow secondary structure.)

Turning to `C[C@H](N)C(=O)O` [Ala, alanine], the ΔGresidue value in series [1] is -0.5 kcal/mol. The “ΔG for transfer from water to organic phase” value (shortened to “ΔG for transfer from water”) in series [2] is 0.50 kcal/mol.
With `NCC(=O)O` [Gly], in series [2], the “ΔG for transfer from water” value is 1.15 kcal/mol.
As for `CSCC[C@H](N)C(=O)O` [Met], the “ΔG for transfer from water” value in series [2] was -0.67 kcal/mol.
For the molecule `N[C@@H](Cc1ccccc1)C(=O)O` [Phe], the “ΔG for transfer from water” value in series [2] is -1.71 kcal/mol.
As to `N[C@@H](CO)C(=O)O` [Ser], the “ΔG for transfer from water” value in series [2] is 0.46 kcal/mol.
In the case of `CC(C)[C@H](N)C(=O)O` [Val, valine], in series [1], the ΔGresidue value is 0.46 kcal/mol. In series [2], the “ΔG for transfer from water” value was -0.46 kcal/mol.
“EEE-FLIVIGSII-KKK (EEEFLIVIGSIIKKK) [Peptide E3h9K3]”: the Viscosity in series [3] (pH 2.2) is 190 mPa · s; in series [3] (pH 6.8) it was 245 mPa · s; in series [3] (pH 12), 20 mPa · s.
As to “EEEFLIVIGSIIEEE-OH [Peptide E3h9E3, EEE-FLIVIGSII-EEE]”, the Solubility entry in series [4] was “insoluble below and somewhat above its pI; also recorded: insoluble at the two lower pH values”. The Viscosity in series [3] (pH 12) worked out at 20 mPa · s.
Consider HHHFLIVIGSIIHHH [Peptide H3h9H3], for which the Solubility result in series [4] was “insoluble at all pH values”.
With “KKK-FLIVIGSII-EEE (KKKFLIVIGSIIEEE) [Peptide K3h9E3]”, the Viscosity in series [3] (pH 2.2) is 210 mPa · s; in series [3] (pH 6.8) it was 305 mPa · s; in series [3] (pH 12), 20 mPa · s.
In the case of “KKK-FLIVIGSII-KKK (KKKFLIVIGSIIKKK) [Peptide K3h9K3]”, in series [5], the “Peptide integrity (hydrolysis of peptide bonds)” value is recorded as “intact monomer however no detectable amounts of fragmented peptide”. Also, the results for the Viscosity in series [3] (pH 2.2), in series [3] (pH 6.8) and in series [3] (pH 12) were 20 mPa · s, 20 mPa · s and 290 mPa · s, respectively. Moreover, the “Effect of temperature on CD spectra (conformation)” value in series [6] is given as “did not alter the CD spectra”.
As for RRRFLIVIGSIIRRR [Peptide R3h9R3], in series [4] (pH 12.0), the Ionisation state result is recorded as “not fully ionized”.
